Measured values taken from US6689759B1, “Methods of Treating hepatitis virus infections with N-substituted-1,5-dideoxy-1,5-imino-d-glucitol compounds in combination therapy” (G. D. Searle & Co., priority 2000, dated 2004).

What was measured:
[1] = in vivo; cited from earlier work
Hepatitis B virus = conditions: literature; cited from earlier work
[2] = HIV infected patients; cited from earlier work
HBV DNA = test: Cell culture experiments with N-nonyl-DNJ: total HBV DNA and immune precipitated DNA (IPDNA); format: cell-based
Excerpt: (§1) There are two measures of drug efficacy: reduction in total HBV DNA (measured by quantitative PCR), and reduction in HBV DNA from capsids with intact surface glycoproteins, which is the active form of the virus (measured by an ELISA-like immune precipitation assay followed by quantitative PCR).

[3] = tested on: woodchuck hepatitis virus (WHV); test: Woodchuck model, N-nonyl-DNJ monotherapy, BID oral dosing, total HBV DNA and IPDNA; format: in vivo
Protocol: Therefore, five groups of four animals each (all groups had both sexes, all but the control had two of each sex) were assigned to 0, 12.5, 25, 50, and 100 mg/kg/day with BID oral dosing. These were lab-reared wild animals. All animals were infected with woodchuck hepatitis virus (WHV) as neonates, and had been tested positive on serological tests for WHV surface antigen. Blood samples were drawn one week prior to dosing (−1 week), immediately before dosing (0 weeks), weekly during dosing (1, 2, 3, and 4 weeks), and after the end of dosing (5, 6, 8, and 10 weeks).
as §1
Before models are fitted to the data, a log transform was applied because: 1) the variation in IPDNA increases with increasing IPDNA values; the log transformation gives values with a nearly constant variation, and 2) it is expected that drug effects will appear as a constant multiplier of the IPDNA level. Because there are zero values of IPDNA, a small value (about ½ of the smallest non-zero value) was added to all values before the log transform.
Two approaches were used to model the changes in slope to week with dose of N-nonyl-DNJ: a linear modeling approach and a nonlinear model. Both approaches assume that the (linear) rate of change of the Log(IPDNA) measure over the dosing period is the “right” measure to reflect the effect of the drug on the virus. Both approaches are fit in stages, and the first stage is common to both approaches. First, a simple straight line regression model is fit using weeks 0-4 to predict log(IPDNA+10) separately for each animal by run combination. In the second stage, the response variable is the slope fitted in the first stage.
For the linear approach, a model is fit with slope to week as the response where run is considered a block, dose has a significant effect (almost all of this effect is due to a slope to dose), and the relevant error for testing the effect of dose is the variation among animals treated alike (after the adjustment for the runs as blocks). This is similar to using the calibration data within each run to first adjust each run's data to a common virus DNA concentration; the difference is that here the data from the woodchucks are used for the run adjustment rather than only the calibration data.
For the nonlinear approach, a four parameter logistic model is fit with the slope to week as the response and the dose as the predictor. Again, run is considered a block, but because no run has all weeks, it is not possible to fully reflect the blocking in the nonlinear approach. […] The average maximum slope observed was 2.71 additional Log(IPDNA μg/mL)/week, or an increase of about 150%/week, the average minimum slope observed with N-nonyl-DNJ is 0.31 fewer Log(IPDNA μg/mL)/week), or about a decrease of about 25%/week. The slopes, the fitted model, the parameter estimates from the-model, and the approximate standard errors for these parameters are all shown in FIG. 3. […] Whether in woodchucks or humans, the effective dose of both the N-alkyl-DNJ and nucleoside or nucleotide antiviral agent administered in combination therewith can be administered in two equal daily subdoses (i.e., B.I.D.).

O=c1[nH]c(=O)n([C@@H]2O[C@H](CO)[C@@H](O)[C@@H]2F)cc1I [fialuridine]
toxicity [1]: drug-related liver failure leading to death in some patients

Cc1cn([C@H]2C[C@H](N=[N+]=[N-])[C@@H](CO)O2)c(=O)[nH]c1=O [zidovudine, 3′-azido-3′-deoxythymidine, reference compound]
usefulness against Hepatitis B infection (Hepatitis B virus): appears to have little use against the same virus

CCCCN1C[C@H](O)[C@@H](O)[C@H](O)[C@H]1CO [n-butyl-DNJ, N-butyl-1-5-dideoxy-1,5-imino-D-glucitol]
usefulness against Hepatitis B infection (Hepatitis B virus): effective | tolerability [2]: well tolerated

CCCCCCCCCN1C[C@H](O)[C@@H](O)[C@H](O)[C@H]1CO [N-nonyl-DNJ, N-(n-nonyl-)-1,5-dideoxy-1,5-imino-D-glucitol]
effect on immune precipitated DNA (IPDNA) (HBV DNA): marked effect | effect on total HBV DNA (HBV DNA): little or no effect | average maximum slope observed ([3]; additional Log(IPDNA)/week, i.e. an increase, low dose end of the model): 2.71 Log(IPDNA μg/mL)/week | average minimum slope observed ([3]; fewer Log(IPDNA)/week, i.e. a decrease): 0.31 Log(IPDNA μg/mL)/week | EC50 ([3]; four parameter logistic model, slope of Log(IPDNA+10) to week versus dose): 7.88 mg/kg/BID dose | decrease of IPDNA at the average minimum slope ([3]; in vivo): about 25 %/week | increase of IPDNA at the average maximum slope ([3]; low dose end of the model): about 150 %/week | effect on total HBV DNA measurements ([3]; woodchuck, all dose levels, quantitative PCR): no effect | slope of IPDNA over weeks 0-4 ([3]; woodchuck, change in slope statistically significant (p<0.005)): generally increasing for low dose animals and decreasing for high dose animals | approximate effective monotherapy dose ([3]; woodchucks): about 16 mg/kg/day
